According to PubChem BioAssay (NCI):
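Compound exposure: 48 hours, 5 concentrations, 96-well plates. GI50 marks 50% less growth. TGI denotes the concentration required for complete inhibition of growth.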

What was measured:
Test in all cases: DTP human tumour cell line panel, 48 h
T-47D breast = tested on: T-47D breast
SF-539 CNS = tested on: SF-539 CNS
NCI-H23 lung = tested on: NCI-H23 lung
SF-268 CNS = tested on: SF-268 CNS
TK-10 renal = tested on: TK-10 renal
SK-MEL-5 melanoma = tested on: SK-MEL-5 melanoma
NCI-H522 lung = tested on: NCI-H522 lung
SR leukemia = tested on: SR leukemia
DU-145 prostate = tested on: DU-145 prostate
OVCAR-8 ovarian = tested on: OVCAR-8 ovarian
A498 renal = tested on: A498 renal
SNB-19 CNS = tested on: SNB-19 CNS
KM12 colon = tested on: KM12 colon
SK-MEL-28 melanoma = tested on: SK-MEL-28 melanoma
SF-295 CNS = tested on: SF-295 CNS
NCI-H226 lung = tested on: NCI-H226 lung
HS 578T breast = tested on: HS 578T breast
HOP-62 NSCLC = tested on: HOP-62 NSCLC
SNB-75 CNS = tested on: SNB-75 CNS
U251 CNS = tested on: U251 CNS
UACC-62 melanoma = tested on: UACC-62 melanoma
OVCAR-5 ovarian = tested on: OVCAR-5 ovarian
CCRF-CEM leukemia = tested on: CCRF-CEM leukemia
OVCAR-4 ovarian = tested on: OVCAR-4 ovarian
HCT-15 colon = tested on: HCT-15 colon
COLO 205 colon = tested on: COLO 205 colon
K-562 leukemia = tested on: K-562 leukemia
SK-MEL-2 melanoma = tested on: SK-MEL-2 melanoma
A549 NSCLC = tested on: A549 NSCLC
LOX IMVI melanoma = tested on: LOX IMVI melanoma
SN12C renal = tested on: SN12C renal
UACC-257 melanoma = tested on: UACC-257 melanoma
HT29 colon = tested on: HT29 colon
NCI-H460 lung = tested on: NCI-H460 lung
ACHN renal = tested on: ACHN renal
CAKI-1 renal = tested on: CAKI-1 renal
MALME-3M melanoma = tested on: MALME-3M melanoma
MCF7 breast = tested on: MCF7 breast
MDA-MB-231 breast = tested on: MDA-MB-231 breast
RXF 393 renal = tested on: RXF 393 renal
SW-620 colon = tested on: SW-620 colon
SK-OV-3 ovarian = tested on: SK-OV-3 ovarian
NCI/ADR-RES ovarian = tested on: NCI/ADR-RES ovarian
HCT-116 colon = tested on: HCT-116 colon
RPMI-8226 leukemia = tested on: RPMI-8226 leukemia
PC-3 prostate = tested on: PC-3 prostate
786-0 renal = tested on: 786-0 renal
BT-549 breast = tested on: BT-549 breast
UO-31 renal = tested on: UO-31 renal
M14 melanoma = tested on: M14 melanoma
OVCAR-3 ovarian = tested on: OVCAR-3 ovarian
MOLT-4 leukemia = tested on: MOLT-4 leukemia
MDA-MB-435 = tested on: MDA-MB-435
HL-60(TB) leukemia = tested on: HL-60(TB) leukemia
IGROV1 ovarian = tested on: IGROV1 ovarian
EKVX NSCLC = tested on: EKVX NSCLC
HOP-92 NSCLC = tested on: HOP-92 NSCLC

O=c1oc(-c2ccccc2)cc2cccc(O)c12
GI50 (T-47D breast): 13.6 µM | TGI (T-47D breast): > 100 µM | GI50 (SF-539 CNS): 0.927 µM | TGI (SF-539 CNS): 5.21 µM | GI50 (NCI-H23 lung): 19.6 µM | TGI (NCI-H23 lung): 61.5 µM | GI50 (SF-268 CNS): 30.1 µM | TGI (SF-268 CNS): > 89.9 µM | GI50 (TK-10 renal): 9.45 µM | TGI (TK-10 renal): 39.8 µM | GI50 (SK-MEL-5 melanoma): 24 µM | TGI (SK-MEL-5 melanoma): > 100 µM | GI50 (NCI-H522 lung): 49.9 µM | TGI (NCI-H522 lung): > 100 µM | GI50 (SR leukemia): 43.5 µM | TGI (SR leukemia): > 100 µM | GI50 (DU-145 prostate): > 48.7 µM | TGI (DU-145 prostate): > 100 µM | GI50 (OVCAR-8 ovarian): 23.9 µM | TGI (OVCAR-8 ovarian): 52.4 µM | GI50 (A498 renal): 21 µM | TGI (A498 renal): 48 µM | GI50 (SNB-19 CNS): 30.6 µM | TGI (SNB-19 CNS): > 100 µM | GI50 (KM12 colon): 20.8 µM | TGI (KM12 colon): > 69.3 µM | GI50 (SK-MEL-28 melanoma): > 100 µM | TGI (SK-MEL-28 melanoma): > 100 µM | GI50 (SF-295 CNS): 28.3 µM | TGI (SF-295 CNS): > 83.9 µM | GI50 (NCI-H226 lung): 19.4 µM | TGI (NCI-H226 lung): 51 µM | GI50 (HS 578T breast): 23.8 µM | TGI (HS 578T breast): 54.7 µM | GI50 (HOP-62 NSCLC): 19.5 µM | TGI (HOP-62 NSCLC): 40.9 µM | GI50 (SNB-75 CNS): 24.4 µM | TGI (SNB-75 CNS): > 62.6 µM | GI50 (U251 CNS): 18 µM | TGI (U251 CNS): 35.1 µM | GI50 (UACC-62 melanoma): 24.5 µM | TGI (UACC-62 melanoma): > 64.3 µM | GI50 (OVCAR-5 ovarian): 55.3 µM | TGI (OVCAR-5 ovarian): > 100 µM | GI50 (CCRF-CEM leukemia): > 100 µM | TGI (CCRF-CEM leukemia): > 100 µM | GI50 (OVCAR-4 ovarian): > 100 µM | TGI (OVCAR-4 ovarian): > 100 µM | GI50 (HCT-15 colon): 19.6 µM | TGI (HCT-15 colon): > 100 µM | GI50 (COLO 205 colon): > 100 µM | TGI (COLO 205 colon): > 100 µM | GI50 (K-562 leukemia): > 67.3 µM | TGI (K-562 leukemia): > 100 µM | GI50 (SK-MEL-2 melanoma): > 100 µM | TGI (SK-MEL-2 melanoma): > 100 µM | GI50 (A549 NSCLC): 24.7 µM | TGI (A549 NSCLC): > 64.6 µM | GI50 (LOX IMVI melanoma): 29.7 µM | TGI (LOX IMVI melanoma): > 100 µM | GI50 (SN12C renal): 19.4 µM | TGI (SN12C renal): 51.2 µM | GI50 (UACC-257 melanoma): > 71.9 µM | TGI (UACC-257 melanoma): > 100 µM | GI50 (HT29 colon): > 56.9 µM | TGI (HT29 colon): > 100 µM | GI50 (NCI-H460 lung): 29 µM | TGI (NCI-H460 lung): > 100 µM | GI50 (ACHN renal): 25.9 µM | TGI (ACHN renal): > 73.1 µM | GI50 (CAKI-1 renal): 37.3 µM | TGI (CAKI-1 renal): > 81.7 µM | GI50 (MALME-3M melanoma): 69.4 µM | TGI (MALME-3M melanoma): > 100 µM | GI50 (MCF7 breast): > 28 µM | TGI (MCF7 breast): > 100 µM | GI50 (MDA-MB-231 breast): 29.2 µM | TGI (MDA-MB-231 breast): > 85.7 µM | GI50 (RXF 393 renal): 24.8 µM | TGI (RXF 393 renal): > 70.9 µM | GI50 (SW-620 colon): 58 µM | TGI (SW-620 colon): > 100 µM | GI50 (SK-OV-3 ovarian): 26.8 µM | TGI (SK-OV-3 ovarian): 68.6 µM | GI50 (NCI/ADR-RES ovarian): 33.3 µM | TGI (NCI/ADR-RES ovarian): > 74.3 µM | GI50 (HCT-116 colon): 19.8 µM | TGI (HCT-116 colon): 45.2 µM | GI50 (RPMI-8226 leukemia): 34 µM | TGI (RPMI-8226 leukemia): > 100 µM | GI50 (PC-3 prostate): 40.6 µM | TGI (PC-3 prostate): > 100 µM | GI50 (786-0 renal): 28.7 µM | TGI (786-0 renal): > 76.9 µM | GI50 (BT-549 breast): 17.5 µM | TGI (BT-549 breast): 59.1 µM | GI50 (UO-31 renal): 72 µM | TGI (UO-31 renal): > 100 µM | GI50 (M14 melanoma): > 80.9 µM | TGI (M14 melanoma): > 100 µM | GI50 (OVCAR-3 ovarian): 25.2 µM | TGI (OVCAR-3 ovarian): 85.8 µM | GI50 (MOLT-4 leukemia): 66.3 µM | TGI (MOLT-4 leukemia): > 100 µM | GI50 (MDA-MB-435): 69 µM | TGI (MDA-MB-435): > 100 µM | GI50 (HL-60(TB) leukemia): 63.5 µM | TGI (HL-60(TB) leukemia): > 100 µM | GI50 (IGROV1 ovarian): 23 µM | TGI (IGROV1 ovarian): > 100 µM | GI50 (EKVX NSCLC): 4.22 µM | TGI (EKVX NSCLC): > 40.6 µM | GI50 (HOP-92 NSCLC): 16.8 µM | TGI (HOP-92 NSCLC): 61.6 µM
